Reference: US5559101A, “L-ribofuranosyl nucleosides” (priority 1994, dated 1996)
Converted amounts (≈) assume the structure as drawn. Where two headings read alike, the source gives them in different places.

How the values were obtained:
[1] = In vitro survival of bone marrow control cells (radiometric BACTEC); format: cell-based; parameters: concentration or dose not given beside the values
Text: (§1) CELL LINES: Eight different established human cell lines CALU (lung), COLO320 (colon), H578St (breast), HT-29 (colon), MCF-7 (breast), OM-1 (colon), SKLU (lung) and SKMES(lung), and two control cell lines (bone marrow and/or fibroblast cells) were utilized. All cell lines were obtained from the Tumor Cloning Laboratory, Institute for Drug Development, Cancer Therapy and Research Center, San Antonio, Tex. All cell lines grew as monolayers in the appropriate culture medium supplemented with heat-inactivated calf serum. All reagents were obtained from Grand Island Biological Co., Grand Island, N.Y.
(§2) The iv formulations of the compounds of the present invention were prepared with sterile buffered saline and stored at -70° C. until required for testing.
(§3) Following trypsinization, tumor cells were suspended in tissue culture medium and exposed to the antitumor agents continuously at three different concentrations: 10, 1 and 0.1 μg/ml.
(§4) RADIOMETRIC MEASUREMENT OF GROWTH INHIBITION: Growth inhibition was assessed with the BACTEC System 460 (Johnston Laboratories, Towson, Md.) after addition of the antitumor agent to the cell in the respective growth medium containing ^14 C-glucose at a final concentration of 2 μCi/ml.
(§5) Two mls of the tumor cell suspension containing radioactive glucose were seeded into sterile, disposable 15 ml vials by injection through self-sealing rubber-aluminum caps. […] The seeded vials were then incubated at 37° C. Measurement of the release of ^14 CO2 resulting from the metabolism of ^14 C-glucose were performed on days 6, 9, 12 and 15 in the BACTEC instrument. This instrument flushes the ^14 CO2 containing air out of the vials into an ionization chamber that converts dpm to growth index values. […] Each data point represents triplicate values.
(§6) All compounds were dosed on an equimilimolar basis.

OM-1 (colon) = experiment: Radiometric growth inhibition of tumor cells, OM-1; format: cell-based, human; parameters: % SURVIVAL TUMOR: concentration or dose not given beside the values; details: for IC50: Homo sapiens
Text: as §1, §2, §3, §4, §5, §6

COLO320 (colon) = experiment: Radiometric growth inhibition of tumor cells, COLO320; format: cell-based, human; parameters: % SURVIVAL TUMOR: concentration or dose not given beside the values; details: for % SURVIVAL TUMOR: continuous exposure; for IC50: Homo sapiens, COLO 320
Text: as §1, §2, §3, §4, §5, §6

SKLU (lung) = experiment: Radiometric growth inhibition of tumor cells, SKLU; format: cell-based, human; parameters: % SURVIVAL TUMOR: concentration or dose not given beside the values; details: for IC50: Homo sapiens
Text: as §1, §2, §3, §4, §5, §6

CALU (lung) = experiment: Radiometric growth inhibition of tumor cells, CALU; format: cell-based, human
Text: as §1, §2, §3, §4, §5, §6

HS578T (breast) = experiment: Radiometric growth inhibition of tumor cells, HS578T; format: cell-based, human; details: HS578T; for % SURVIVAL TUMOR: continuous exposure; for IC50: Homo sapiens, Hs-578T, concentration required to kill 50%, read-out: IC 50
Text: as §1, §2, §3, §4, §5, §6

MCF-7 (breast) = experiment: Radiometric growth inhibition of tumor cells, MCF-7; format: cell-based, human; parameters: % SURVIVAL TUMOR: concentration or dose not given beside the values; details: MCF-7
Text: as §1, §2, §3, §4, §5, §6

HT29 (colon) = experiment: Radiometric growth inhibition of tumor cells, HT29; format: cell-based, human; parameters: % SURVIVAL TUMOR: concentration or dose not given beside the values; details: for IC50: Homo sapiens, HT-29, concentration required to kill 50%, read-out: IC 50
Text: as §1, §2, §3, §4, §5, §6

[2] = bone marrow control cells, continuous exposure, read-out: % SURVIVAL BONE MARROW
[3] = OM-1, concentration required to kill 50%, read-out: IC 50
[4] = SKLU, concentration required to kill 50%, read-out: IC 50
[5] = COLO320, concentration required to kill 50%, read-out: IC 50

SMILES	viability [1, 2] [%]	IC50 (OM-1 (colon); [3]) [µg/mL]	% SURVIVAL TUMOR (OM-1 (colon); OM-1, continuous exposure) [%]	% SURVIVAL TUMOR (SKLU (lung); SKLU, continuous exposure) [%]	IC50 (SKLU (lung); [4]) [µg/mL]	viability ([1]; bone marrow cells) [%]	further results
O=c1ccn2c(n1)O[C@H]1[C@@H](O)[C@H](CO)O[C@H]12 [O^2,O^2' -Anhydro-1-α-L-ribofuranosyluracil]	70.9	2.97 (≈ 13.1 µM)	46.4				
Nc1ccn([C@@H]2O[C@@H](CO)[C@H](O)[C@@H]2O)c(=O)n1 [α-L-ribofuranosyl cytosine, 1-α-L-Ribofuranosylcytosine]	120			88.8			% SURVIVAL TUMOR (COLO320 (colon); COLO320): 82.3%; IC50 (COLO320 (colon)): 34.9 µg/mL (≈ 143 µM); IC50 (SKLU (lung)): 240 µg/mL (≈ 987 µM)
O=c1[nH]c(=O)n([C@@H]2O[C@@H](CO)[C@H](O)[C@@H]2O)cc1F [α-L-ribofuranosyl-5-fluorouracil, 1-α-L-ribofuranosyl-5-fluorouracil]	94.6	0.87 (≈ 3.32 µM)	0.4	71	43.4 (≈ 166 µM)		
O=c1ccn([C@@H]2O[C@@H](CO)[C@H](O)[C@@H]2O)c(=O)[nH]1 [α-L-ribofuranosyl-uracil, 1-α-L-Ribofuranosyluracil]						96.6	IC50 (CALU (lung); Homo sapiens, CALU, concentration required to kill 50%, read-out: IC 50): > 10 µg/mL; % SURVIVAL TUMOR (CALU (lung); human, calu lung tumor cells): 89.1%
O=c1[nH]cnc2c1ncn2[C@H]1O[C@@H](CO)[C@H](O)[C@@H]1O [β-:-ribofuranosyl hypoxanthine, 9-β-L-Ribofuranosylhypoxanthine]	118	82.7 (≈ 308 µM)	87.3	82.5	48.1 (≈ 179 µM)		% SURVIVAL TUMOR (COLO320 (colon); COLO320): 68.2%; IC50 (COLO320 (colon); [5]): 17.9 µg/mL (≈ 66.7 µM); % SURVIVAL TUMOR (HS578T (breast)): 93.4%; IC50 (HS578T (breast)): > 10 µg/mL; IC50 (MCF-7 (breast); Homo sapiens, MCF7, concentration required to kill 50%, read-out: IC 50): 38.1 µg/mL (≈ 142 µM); % SURVIVAL TUMOR (MCF-7 (breast); continuous exposure): 96.8%
Nc1ncnc2c1ncn2[C@H]1O[C@@H](CO)[C@H](O)[C@@H]1O [β-L-ribofuranosyl adenine, 9-β-L-Ribofuranosyladenine]		4.23 (≈ 15.8 µM)				91.2	% SURVIVAL TUMOR (OM-1 (colon); human, om-1 colon tumor cells): 50.9%
Nc1ccn([C@H]2O[C@@H](CO)[C@H](O)[C@@H]2O)c(=O)n1 [β-L-ribofuranosyl cytosine, 1-β-L-Ribofuranosylcytosine]	72.6		39.2				IC50 (OM-1 (colon)): 5.9 µg/mL (≈ 24.3 µM)
Nc1nc(O)c2ncn([C@H]3O[C@@H](CO)[C@H](O)[C@@H]3O)c2n1 [β-L-ribofuranosyl guanine, 9-β-L-Ribofuranosylguanine]	170	0.097 (≈ 0.342 µM)	44.7				% SURVIVAL TUMOR (HT29 (colon); HT29, continuous exposure): 80.9%; IC50 (HT29 (colon); HT29): > 10 µg/mL
O=c1ccn([C@H]2O[C@@H](CO)[C@H](O)[C@@H]2O)c(=O)[nH]1 [β-L-ribofuranosyl uracil, 1-β-L-Ribofuranosyluracil]		0.094 (≈ 0.385 µM)				112	IC50 (HT29 (colon); HT29): > 10 µg/mL; % SURVIVAL TUMOR (HT29 (colon); human, ht29 colon tumor cells): 78.7%; % SURVIVAL TUMOR (OM-1 (colon); human, om-1 colon tumor cells): 30.8%
O=c1[nH]c(=O)n([C@H]2O[C@@H](CO)[C@H](O)[C@@H]2O)cc1F [β-L-ribofuranosyl-5-fluorouracil, 1-β-L-Ribofuranosyl-5-fluorouracil]	130	37.8 (≈ 144 µM)	71.9	69.7	32.2 (≈ 123 µM)		% SURVIVAL TUMOR (COLO320 (colon); COLO320): 81.9%; IC50 (COLO320 (colon); [5]): 188 µg/mL (≈ 717 µM); % SURVIVAL TUMOR (HT29 (colon); HT29, continuous exposure): 64.7%; IC50 (HT29 (colon); HT29): 51 µg/mL (≈ 195 µM)
Nc1nc(S)c2ncn([C@H]3O[C@@H](CO)[C@H](O)[C@@H]3O)c2n1 [β-L-ribofuranosyl-6-thioguanine, 9-β-L-Ribofuranosyl-6-thioguanine]		42.7 (≈ 143 µM)			8.7 (≈ 29.1 µM)	97.4	% SURVIVAL TUMOR (HS578T (breast)): 66.6%; IC50 (HS578T (breast)): 17.1 µg/mL (≈ 57.1 µM); % SURVIVAL TUMOR (OM-1 (colon); human, om-1 colon tumor cells): 83.1%; % SURVIVAL TUMOR (SKLU (lung); human, sklu lung tumor cells): 45.1%
